These results are taken from ChEMBL document CHEMBL1201862, “PubChem BioAssay data set” (2004).

The IC50 is the concentration needed to halve the response being measured. What is called CC50 is the concentration that lowers cell viability or growth by half. Usually EC50 stands for the concentration giving half of the maximal effect. Usually AC50 stands for the concentration giving half of the maximal activity seen.

For assay [1], the system named is MDCK. The experiment in a line: antiviral activity against H1N1 influenza, dose response, cell-based, strain KY180 (AID 540254). Type of assay: functional. The note with it: Canis lupus familiaris.
Assay [2] addresses T1, High affinity choline transporter 1 (Homo sapiens, UniProt Q9GZV3).
T1 sequence (Q9GZV3 whole entry): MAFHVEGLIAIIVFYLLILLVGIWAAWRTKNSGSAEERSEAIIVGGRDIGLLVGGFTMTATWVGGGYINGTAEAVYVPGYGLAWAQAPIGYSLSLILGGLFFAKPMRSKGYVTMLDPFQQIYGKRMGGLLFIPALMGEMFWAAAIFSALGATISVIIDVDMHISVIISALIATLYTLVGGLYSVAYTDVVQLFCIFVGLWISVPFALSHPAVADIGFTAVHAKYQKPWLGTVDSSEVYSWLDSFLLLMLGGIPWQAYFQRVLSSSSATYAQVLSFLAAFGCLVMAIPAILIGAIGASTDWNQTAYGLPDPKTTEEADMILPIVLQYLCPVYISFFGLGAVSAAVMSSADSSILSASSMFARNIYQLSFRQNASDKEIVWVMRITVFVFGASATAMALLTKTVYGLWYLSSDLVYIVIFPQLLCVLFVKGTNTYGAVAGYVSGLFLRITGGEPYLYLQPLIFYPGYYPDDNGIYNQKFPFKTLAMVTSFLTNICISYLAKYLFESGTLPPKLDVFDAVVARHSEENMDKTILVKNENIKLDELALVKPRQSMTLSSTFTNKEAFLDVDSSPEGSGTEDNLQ
The experiment in a line: human choline transporter blockers, potency – cell-based, 5-point CRC, membrane potential dye, dose response (AID 504840). Type of assay: functional.

The target in the next assay is Nonstructural protein 1 (Influenza A virus, UniProt Q194T2). Type of assay: functional, Influenza A virus (A/California/07/2009(H1N1)).
Sequence of Nonstructural protein 1 (Q194T2 whole entry): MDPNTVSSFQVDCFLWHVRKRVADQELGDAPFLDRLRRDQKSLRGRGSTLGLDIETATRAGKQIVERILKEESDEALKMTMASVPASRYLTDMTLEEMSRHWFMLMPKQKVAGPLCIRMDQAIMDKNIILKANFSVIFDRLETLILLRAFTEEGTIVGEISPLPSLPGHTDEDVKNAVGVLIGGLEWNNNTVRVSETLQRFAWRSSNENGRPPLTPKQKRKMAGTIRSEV
The subject of another assay is Vero. The experiment in a line: Vero E6 cell cytotoxicity, dose response, cytotoxicity control (AID 540298). To be noted: Chlorocebus sabaeus. Type of assay: functional.
Assay [3] concerns MDCK. The experiment in a line: antiviral activity against H1N1 influenza, dose response, cell-based, strain KY136 (AID 540257). Type of assay: functional. To be noted: Canis lupus familiaris.
Assay [4] relates to MDCK. The experiment in a line: MDCK cell cytotoxicity, dose response, cytotoxicity control (AID 540296). Type of assay: functional. The note with it: Canis lupus familiaris.
The target in assay [5] is Beta-2 adrenergic receptor (Homo sapiens, UniProt P07550). The experiment in a line: ADRB2 activation measured by internalization – cell-based, FAP fluorogen, flow cytometry, cherry pick 1, dose response (AID 588763). Type of assay: functional.
Sequence of Beta-2 adrenergic receptor (P07550 whole entry): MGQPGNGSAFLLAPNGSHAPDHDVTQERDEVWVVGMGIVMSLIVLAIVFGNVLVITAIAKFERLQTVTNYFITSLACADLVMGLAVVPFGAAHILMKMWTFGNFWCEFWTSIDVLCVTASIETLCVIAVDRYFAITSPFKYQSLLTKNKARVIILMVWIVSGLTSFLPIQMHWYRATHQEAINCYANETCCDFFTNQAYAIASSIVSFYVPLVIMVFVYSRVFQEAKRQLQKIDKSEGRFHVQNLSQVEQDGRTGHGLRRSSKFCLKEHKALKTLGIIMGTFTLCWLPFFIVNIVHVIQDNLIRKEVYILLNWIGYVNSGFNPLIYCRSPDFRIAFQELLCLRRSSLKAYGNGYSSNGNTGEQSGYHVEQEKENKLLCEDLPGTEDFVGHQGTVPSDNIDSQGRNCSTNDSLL
Assay [6] relates to HEK293. The experiment in a line: EBV LMP1 TES2 canonical NF-kB signalling blockers – cell-based, HEK293, luciferase, cherry-pick, dose response (AID 588343). Type of assay: functional. The note with it: Homo sapiens.
Assay [7] in a line: cells. Type of assay: functional, cell-based.
Assay [8] in a line: NIH-3T3 fibroblast cytotoxicity, dose response, cytotoxicity control, cell-based, fluorescence, Alamar Blue, secondary assay (AID 2327).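 Further: NIH-3T3 mouse fibroblasts cultured with fluconazole at 8 µg/mL.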 Type of assay: functional. In general terms: Resazurin is reduced to fluorescent resorufin, in cell work by metabolically active cells.
For another assay, the system named is Streptococcus. The experiment in a line: GAS UMAA2166 growth inhibition – luminescence, BacTiterGlo, counter-screen for streptokinase expression inhibitor project, dose response (AID 1915).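 Further: potency for reduction of bacterial viability or growth.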 Type of assay: functional, organism-based.
Assay [9] deals with HEK293. The experiment in a line: SAR Analysis of small molecule inhibitors of T-cell specific antigen receptor-induced NF-kB activation in a HEK-293T cell line using a luminescence assay - Set 2. [Related pubchem assays (depositor defined):AID435003, AID435012, AID489026]. To be noted: Homo sapiens. Type of assay: functional, cell-based.
Assay [10] in a line: Luminescence-based dose response cell-based high throughput screening assay for cytotoxic compounds using the IEC-6 intestinal epithelial cell line. [Related pubchem assays: 1858 (Summary AID.), 1825 (Counterscreen.), 1907 (Confirmation screen.)]. Type of assay: functional. A general note: A counterscreen serves to expose hits that act by an unwanted route or on another target.

The target in assay [11] is ATP-dependent molecular chaperone HSP82 (Candida albicans (strain WO-1) (Yeast), UniProt C4YTQ8). The experiment in a line: steroid-induced GRE reporter decrease in yeast – S. cerevisiae, luminescence, Hsp90 inhibitor project, dose response (AID 2400).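 Further: beta-galactosidase luminescence from glucocorticoid response element reporter as proxy for Hsp90 function; inhibitor potency where signal loss means Hsp90 inhibition.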 Type of assay: functional, cell-based.
Sequence of ATP-dependent molecular chaperone HSP82 (C4YTQ8 whole entry): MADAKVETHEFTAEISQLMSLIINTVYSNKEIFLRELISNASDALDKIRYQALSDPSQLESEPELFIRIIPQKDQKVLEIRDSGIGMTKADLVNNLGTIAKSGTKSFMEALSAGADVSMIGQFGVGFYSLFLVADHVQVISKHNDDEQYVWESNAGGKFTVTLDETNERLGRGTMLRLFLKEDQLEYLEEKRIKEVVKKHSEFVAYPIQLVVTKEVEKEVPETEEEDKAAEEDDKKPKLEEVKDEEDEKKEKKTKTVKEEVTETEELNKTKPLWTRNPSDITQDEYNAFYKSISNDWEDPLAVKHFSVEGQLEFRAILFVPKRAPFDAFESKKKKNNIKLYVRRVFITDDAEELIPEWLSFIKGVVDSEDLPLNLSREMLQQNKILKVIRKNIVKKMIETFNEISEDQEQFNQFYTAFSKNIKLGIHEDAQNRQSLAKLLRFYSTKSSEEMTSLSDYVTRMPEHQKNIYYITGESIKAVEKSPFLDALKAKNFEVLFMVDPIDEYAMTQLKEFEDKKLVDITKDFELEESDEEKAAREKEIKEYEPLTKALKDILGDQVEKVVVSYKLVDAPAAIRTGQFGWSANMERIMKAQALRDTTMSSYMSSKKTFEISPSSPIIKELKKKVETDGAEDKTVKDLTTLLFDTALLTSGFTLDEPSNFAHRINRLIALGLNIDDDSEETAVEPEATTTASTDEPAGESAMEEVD
The nature of assay [12]: NIH3T3 cell viability loss – ATP luminescence, mouse fibroblasts, counter-screen, dose response (AID 2010).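 Further: cells exposed to compound for about 90 hours before reading.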 Type of assay: functional, cell-based.
Assay [13] can be described thus: Trypanosoma cruzi growth suppression in host cells – NIH3T3 host cells, beta-gal luminescence, confirmation (AID 2044).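 Further: intracellular parasites grown in NIH/3T3 mouse fibroblasts as host cells; luminescent beta-galactosidase reporter signal from transgenic T. cruzi replicating inside host cells; inhibitors lower the luminescence signal.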 Type of assay: functional, cell-based.
Assay [14] deals with HEK293. The experiment in a line: SAR Analysis of small molecule inhibitors of T-cell specific antigen receptor-induced NF-kB activation in a HEK-293T cell line using a luminescence assay. [Related pubchem assays (depositor defined):AID435003, AID435012, AID489026]. Type of assay: functional, cell-based. To be noted: Homo sapiens.
In assay [15] the target is Heat shock protein HSP 90-alpha (Homo sapiens, UniProt P07900). Type of assay: functional, organism-based.
A short description of assay [16]: Counterscreen for AddAB inhibitors: absorbance-based bacterial cell-based high throughput dose response assay for inhibitors of bacterial viability. [Related pubchem assays (depositor defined):AID435030, AID449728, AID449731, AID488942, AID488955, AID488956]. Type of assay: functional.
For assay [17], the system named is Jurkat. The experiment in a line: SAR Analysis of small molecule inhibitors of T-cell specific antigen receptor-induced NF-kB activation in a Jurkat cell line using a luminescence assay - Set 2. [Related pubchem assays (depositor defined):AID435003, AID435012, AID465]. To be noted: Homo sapiens. Type of assay: functional, cell-based.
Assay [18] is described as follows: HEK-293T viability loss after treatment – luminescence, T-cell screen hits, cytotoxicity control for TCR NF-kB inhibitor project, dose response (AID 489026).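 Further: cells exposed to compound about 14 hours before the viability readout.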 Type of assay: functional, cell-based.
The target in a further assay is T2, Streptokinase A (Streptococcus pyogenes serotype M1, UniProt P10520).
T2 sequence (P10520 whole entry): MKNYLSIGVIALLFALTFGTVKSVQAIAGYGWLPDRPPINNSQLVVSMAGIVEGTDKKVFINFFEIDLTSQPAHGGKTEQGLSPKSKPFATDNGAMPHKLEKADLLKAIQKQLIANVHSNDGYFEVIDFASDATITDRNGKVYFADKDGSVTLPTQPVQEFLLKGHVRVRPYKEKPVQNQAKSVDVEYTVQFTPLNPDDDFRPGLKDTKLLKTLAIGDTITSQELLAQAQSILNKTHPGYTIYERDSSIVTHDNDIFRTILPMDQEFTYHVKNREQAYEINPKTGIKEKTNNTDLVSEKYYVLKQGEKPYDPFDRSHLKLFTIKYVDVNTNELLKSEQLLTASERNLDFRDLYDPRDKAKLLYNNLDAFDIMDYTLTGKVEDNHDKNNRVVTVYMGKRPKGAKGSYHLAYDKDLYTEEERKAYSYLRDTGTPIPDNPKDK
The experiment in a line: viability-normalized secreted streptokinase activity reduction – plasminogen activation absorbance, OD405, dose response (AID 1914).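 Further: secreted streptokinase activity via plasminogen activation per viability signal from cell pellet.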 Type of assay: functional, Streptococcus pyogenes M1 GAS.

A further assay deals with Exodeoxyribonuclease V (Escherichia coli (strain K12), UniProt P04993+P07648+P08394). The experiment in a line: RecBCD inhibition via phage-restricted bacterial growth – absorbance, V66 E. coli, mutant T4 phage, counter-screen for AddAB inhibitor project, dose response (AID 492957). Type of assay: functional, cell-based, Escherichia coli str. K-12 substr. MG1655.
Sequence of Exodeoxyribonuclease V (P04993 whole entry): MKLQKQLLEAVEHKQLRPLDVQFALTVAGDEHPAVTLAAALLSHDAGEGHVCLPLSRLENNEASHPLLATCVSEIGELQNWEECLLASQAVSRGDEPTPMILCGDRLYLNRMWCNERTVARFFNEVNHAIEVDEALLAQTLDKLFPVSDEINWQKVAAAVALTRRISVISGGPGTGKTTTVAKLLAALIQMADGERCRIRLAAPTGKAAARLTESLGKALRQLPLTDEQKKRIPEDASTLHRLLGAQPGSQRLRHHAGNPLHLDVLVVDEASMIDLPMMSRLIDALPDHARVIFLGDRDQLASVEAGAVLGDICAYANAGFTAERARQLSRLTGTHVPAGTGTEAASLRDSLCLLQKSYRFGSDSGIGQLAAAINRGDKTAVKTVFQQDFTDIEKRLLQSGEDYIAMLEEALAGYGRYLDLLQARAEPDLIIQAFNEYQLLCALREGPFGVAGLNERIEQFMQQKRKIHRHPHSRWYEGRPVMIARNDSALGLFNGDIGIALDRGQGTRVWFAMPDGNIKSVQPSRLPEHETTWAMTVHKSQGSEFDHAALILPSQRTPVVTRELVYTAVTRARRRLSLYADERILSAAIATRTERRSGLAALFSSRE
Sequence of Exodeoxyribonuclease V (P07648 whole entry): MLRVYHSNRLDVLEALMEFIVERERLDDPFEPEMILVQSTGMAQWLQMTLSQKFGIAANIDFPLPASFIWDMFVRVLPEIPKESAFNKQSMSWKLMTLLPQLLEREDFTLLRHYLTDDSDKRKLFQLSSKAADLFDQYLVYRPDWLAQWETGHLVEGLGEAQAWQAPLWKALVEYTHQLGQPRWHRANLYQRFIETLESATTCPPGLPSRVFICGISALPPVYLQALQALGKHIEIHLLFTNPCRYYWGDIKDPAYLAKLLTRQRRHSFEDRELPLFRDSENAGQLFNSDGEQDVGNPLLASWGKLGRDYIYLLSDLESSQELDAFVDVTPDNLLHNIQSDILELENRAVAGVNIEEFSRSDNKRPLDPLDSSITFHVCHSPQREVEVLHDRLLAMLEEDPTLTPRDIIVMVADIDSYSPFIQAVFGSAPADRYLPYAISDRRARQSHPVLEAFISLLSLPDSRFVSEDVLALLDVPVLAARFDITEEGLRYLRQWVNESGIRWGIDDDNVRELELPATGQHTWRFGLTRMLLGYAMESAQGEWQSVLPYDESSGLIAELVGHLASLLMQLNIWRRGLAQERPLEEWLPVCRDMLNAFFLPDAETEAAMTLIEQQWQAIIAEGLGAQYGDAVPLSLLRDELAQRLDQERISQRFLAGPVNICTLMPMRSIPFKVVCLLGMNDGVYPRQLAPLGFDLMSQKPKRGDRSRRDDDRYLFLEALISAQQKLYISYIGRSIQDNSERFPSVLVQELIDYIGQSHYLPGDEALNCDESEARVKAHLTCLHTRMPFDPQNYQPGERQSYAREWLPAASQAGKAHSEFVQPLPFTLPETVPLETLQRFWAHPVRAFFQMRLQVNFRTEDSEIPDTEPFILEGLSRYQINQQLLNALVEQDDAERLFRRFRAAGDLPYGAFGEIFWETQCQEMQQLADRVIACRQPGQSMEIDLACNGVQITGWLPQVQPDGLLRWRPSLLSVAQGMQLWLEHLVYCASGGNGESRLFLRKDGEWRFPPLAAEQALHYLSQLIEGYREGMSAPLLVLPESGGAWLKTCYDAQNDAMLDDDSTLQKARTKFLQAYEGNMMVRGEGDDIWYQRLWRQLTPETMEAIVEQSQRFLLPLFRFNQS
Sequence of Exodeoxyribonuclease V (P08394 whole entry): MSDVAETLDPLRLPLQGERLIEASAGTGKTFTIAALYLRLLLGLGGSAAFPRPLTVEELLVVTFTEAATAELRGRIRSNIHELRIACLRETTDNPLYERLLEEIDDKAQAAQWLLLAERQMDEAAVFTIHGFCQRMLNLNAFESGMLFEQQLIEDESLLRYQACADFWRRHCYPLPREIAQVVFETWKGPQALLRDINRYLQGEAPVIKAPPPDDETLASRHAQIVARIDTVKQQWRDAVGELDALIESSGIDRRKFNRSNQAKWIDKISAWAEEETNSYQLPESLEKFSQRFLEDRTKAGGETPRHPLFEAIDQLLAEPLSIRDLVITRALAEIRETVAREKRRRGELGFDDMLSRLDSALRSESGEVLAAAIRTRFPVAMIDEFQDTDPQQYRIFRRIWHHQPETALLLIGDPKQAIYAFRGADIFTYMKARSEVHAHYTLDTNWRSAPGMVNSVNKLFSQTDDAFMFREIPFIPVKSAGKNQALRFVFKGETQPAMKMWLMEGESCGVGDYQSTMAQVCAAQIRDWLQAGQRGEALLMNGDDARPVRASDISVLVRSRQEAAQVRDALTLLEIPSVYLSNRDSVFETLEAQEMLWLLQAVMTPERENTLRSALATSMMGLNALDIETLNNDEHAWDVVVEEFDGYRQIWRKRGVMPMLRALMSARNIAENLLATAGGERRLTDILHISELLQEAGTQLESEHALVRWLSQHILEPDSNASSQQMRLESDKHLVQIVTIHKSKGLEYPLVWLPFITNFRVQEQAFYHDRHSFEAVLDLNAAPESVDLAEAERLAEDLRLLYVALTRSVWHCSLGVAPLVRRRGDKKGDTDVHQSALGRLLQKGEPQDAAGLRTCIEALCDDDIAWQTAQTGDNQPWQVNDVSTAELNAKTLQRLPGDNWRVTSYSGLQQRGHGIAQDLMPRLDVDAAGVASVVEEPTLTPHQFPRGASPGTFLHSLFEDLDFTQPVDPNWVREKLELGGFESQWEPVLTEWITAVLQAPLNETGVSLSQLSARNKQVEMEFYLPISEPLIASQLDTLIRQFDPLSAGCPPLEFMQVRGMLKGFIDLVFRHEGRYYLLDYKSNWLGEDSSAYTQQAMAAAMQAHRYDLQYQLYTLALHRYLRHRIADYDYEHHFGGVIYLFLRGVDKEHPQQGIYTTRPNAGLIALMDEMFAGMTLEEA
Assay [19] deals with T3, Serine/threonine-protein phosphatase (Candida dubliniensis (strain CD36 / CBS 7987 / NCPF 3949 / NRRLY-17841) (Yeast), UniProt B9W6M3).
T3 sequence (B9W6M3 whole entry): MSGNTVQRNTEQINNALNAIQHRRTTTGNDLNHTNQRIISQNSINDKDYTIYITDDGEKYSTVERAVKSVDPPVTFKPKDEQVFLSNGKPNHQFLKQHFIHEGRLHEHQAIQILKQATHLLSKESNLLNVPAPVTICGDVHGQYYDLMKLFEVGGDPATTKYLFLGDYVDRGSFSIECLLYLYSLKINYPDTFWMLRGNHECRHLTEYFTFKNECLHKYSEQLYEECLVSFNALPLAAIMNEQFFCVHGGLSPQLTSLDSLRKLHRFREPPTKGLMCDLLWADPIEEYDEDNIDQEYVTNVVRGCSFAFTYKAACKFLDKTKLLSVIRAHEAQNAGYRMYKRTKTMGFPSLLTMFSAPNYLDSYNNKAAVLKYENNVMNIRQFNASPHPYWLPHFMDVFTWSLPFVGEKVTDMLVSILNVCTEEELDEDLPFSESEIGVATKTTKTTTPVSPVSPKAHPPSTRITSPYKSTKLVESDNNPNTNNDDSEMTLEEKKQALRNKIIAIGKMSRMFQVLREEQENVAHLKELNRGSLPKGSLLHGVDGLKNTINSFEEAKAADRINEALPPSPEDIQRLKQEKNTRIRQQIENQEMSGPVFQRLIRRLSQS
The experiment in a line: blockers of CaCl2-induced CDRE-lacZ signaling – S. cerevisiae, luminescence, secondary, dose response (AID 2388).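 Further: yeast reporter cells carrying a calcineurin-responsive lacZ construct stimulated with calcium chloride; luminescent beta-galactosidase reporter signal in whole cells rather than isolated phosphatase activity; potency for inhibition where a drop in reporter signal means calcineurin blockade.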 Type of assay: functional, cell-based.

Assay [20] deals with Jurkat. The experiment in a line: SAR Analysis of small molecule inhibitors of T-cell specific antigen receptor-induced NF-kB activation in a Jurkat cell line using a luminescence assay. [Related pubchem assays (depositor defined):AID435003, AID435012, AID465]. Type of assay: functional, cell-based. The note with it: Homo sapiens.
The subject of assay [21] is Streptococcus sp. 'group A'. The experiment in a line: Streptococcus pyogenes SK(-)GAS viability under kanamycin – luminescence, BacTiterGlo, confirmation, counter-screen for streptokinase expression inhibitor project, dose response (AID 1900). Type of assay: functional, organism-based.
Assay [22] can be described thus: fluconazole-exposed Candida albicans growth modulators – fluorescence, retest, confirmation (AID 2467). Type of assay: functional, cell-based.
In another assay the test system is INS1. The experiment in a line: INS-1E survival protection against cytokine death – cell-based, luminescence, retest, dose response (AID 449756).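 Further: cell death triggered by IL-1 beta plus TNF-alpha plus IFN-gamma mixture; protective hits raise ATP signal compared with cytokine alone wells.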 Type of assay: functional. The note with it: Rattus norvegicus.
Assay [23] is described as follows: cells. Type of assay: functional, cell-based. The source holds these as a separate data set.
Assay [24] deals with HEK293. The experiment in a line: HEK293T cell viability loss, resazurin readout – resazurin fluorescence, cytotoxicity control for NF-kB activator project, SAR follow-up (AID 493251). Type of assay: functional, cell-based.

The structures appear in SMILES notation. Calls of active or inactive are those of the source. Some results are limits rather than exact numbers.

`O=C(Nc1cccc(CNCCc2c[nH]c3ccccc23)c1)c1ccccc1Cl`: the IC50 is > 100 µM (active) in the assay on MDCK [1], 17.4 µM (active) in [2], > 100 µM (active) at Nonstructural protein 1 and 2.93 µM (active) in the assay on MDCK [3]. The CC50 is 22.4 µM (active) in the assay on Vero and 10.9 µM (active) in the assay on MDCK [4].
`Cc1ccc(OCc2nnc(SCc3nc4ccccc4[nH]3)n2Cc2ccco2)cc1`: the EC50 in assay [5] was 1.08 µM (active).
Consider `CCCC(=O)NC(c1ccc(C)cc1)c1ccc2cccnc2c1O` (stereo unspecified), for which the AC50 in the assay with HEK293 [6] is 4.94 µM (active); in assay [15], 3.35 µM (active); with INS1, 0.535 µM (active). For the same molecule, the EC50 was 6.34 µM (active) in the assay “cells [7]”; 23.6 µM (inconclusive) in assay [8]; 14.7 µM (active) with Streptococcus; > 150 µM (inactive) in assay [11]; 0.588 µM (active) in assay [12]; 0.348 µM (active) in [13]. Also, the EC50 at Streptokinase A was > 150 µM (not active); in assay [19] it was > 180 µM (inactive); in assay [21], 6.65 µM (active); in assay [22], 0.449 µM (active); in “cells [23]” it was > 350 µM (not active). Moreover, the IC50 in the assay on HEK293 [9] was 6.36 µM (active); in assay [10] it was 1.47 µM (active); in the assay on HEK293 [14] it was 6.94 µM (active); in assay [16], > 119 µM (inactive); in the assay on Jurkat [17] it was 2.52 µM (active); in assay [18], > 80 µM (inactive). For the same molecule, the IC50 on Exodeoxyribonuclease V was > 119 µM (inactive); in the assay with Jurkat [20], 3.79 µM (active); with HEK293 [24] (Homo sapiens, HEK293), 8.08 µM (active); in the assay with HEK293 [24] (hek293), 5.93 µM (active).
